What was measured:
[1] = tested on: rabbit femoral arteries; details: 10 mM, one minute modification, two-minute perfusion, versus control, FIG. 3
Excerpt: (§1) Bovine carotid and rabbit femoral arteries were harvested and placed into a container with DMEM. The arteries were then transferred to a petri dish with DPBS, and excess fat was removed from the vessel exterior with the aid of a scalpel and forceps. The vessel was then filleted with a pair of surgical scissors to expose the luminal surface. The lumen of the bovine vessel was scrape damaged with a spatula to simulate the damage that would occur during a vascular procedure in which plaque is scrapped off. The vessel was utilized without further preparation. The vessels were loaded into a tubular perfusion chamber. The wash medium used was DMEM with a 4.5 g/dl of bovine serum albumin [BSA] (Sigma). A syringe pump (Harvard Apparatus) was used to provide flow and mimic the arterial shear conditions that would be experienced in vivo. Initially, the vessel was perfused for five minutes with the wash medium. At this point, 1 mL of a 10 mM NHS-PEG-Biotin solution was injected into the chamber and incubated with the vessel for modification for one minute. Again, the wash medium was perfused for five minutes. Next, a 10 mL solution of NeutrAvidin-coated microspheres (Molecular Probes) at a concentration of 7.28×10^6 particles/mL was perfused over the modified surface for 2 minutes. The vessel was washed for five minutes one additional time and then removed from the chamber. Finally, the vessel was analyzed by counting the number of microspheres bound per mm^2 of tissue using epi-fluorescence microscopy. This same protocol was repeated for the control, with the vessel being incubated with DPBS alone and not the NHS-PEG-Biotin as described previously.

[2] = tested on: Bovine carotid arteries
Excerpt: as §1

NHS-PEG-Biotin was tested, and the “number of microspheres bound per mm^2 of tissue” value [1] was “far greater than the control vessels”, the “number of microspheres bound per mm^2 of tissue” value ([2]; bovine arteries, 10 mM, one minute modification, two-minute perfusion, versus control, FIG. 2) was “far greater than the control vessels” and the “binding of the microspheres to the modified versus unmodified surfaces (fluorescent micrographs)” value ([2]; carotid artery segments, 10 mM NHS-PEG-Biotin, one minute, FIGS. 1A and 1B) was “microspheres have attached”.

Reference: patent US20020022266A1, “Localized delivery to a target surface” (priority 2000, published 2002)
